The text below walks through data of ChEMBL document CHEMBL4482324, “Ash1l inhibitors and methods of treatment therewith” (2017).

A word on the IC50: it is the point on the concentration scale where inhibition reaches its midpoint.

This test deals with Histone-lysine N-methyltransferase ASH1L (Homo sapiens, UniProt Q9NR48). The test can be described thus: Inhibition of MOCR-fused ASH1L SET-BAH ( 2069 to 2833 amino acids) (unknown origin) expressed as in Escherichia coli BL21 (DE3) T1R cells using SAM and chicken mono/dinucleosomes incubated for 1 hr by scintillation counting assay.
With `NC(=S)c1cccc(-c2cc(C(F)(F)F)cc3c2ccn3CCO)c1`, the IC50 fell in the range of 20 to 100 µM.
The same measure for `CC(O)Cn1cc(-c2cccc(C(N)=S)c2)c2ccccc21` (stereo unspecified): 20 to 100 µM.
Under `CS(=O)(=O)N1CCC(n2cc(-c3cccc(C(N)=S)c3)c3ccc(CNC(=O)Cc4cc(NCC5CCCCC5)c[nH]4)cc32)CC1` stands less than 20 µM; under `NC(=S)c1cccc(-c2cn(CCC(F)F)c3cc4cc[nH]c4cc23)c1`, less than 20 µM.
As for `NC(=S)c1cccc(-c2cn(CCC(F)F)c3cc(C(F)F)ccc23)c1`, the IC50 was less than 20 µM.
`NC(=S)c1cccc(-c2cn(CC3CCCC3)c3cc(N)ccc23)c1`: the IC50 is less than 20 µM.
`NC(=S)c1cc(-c2ccc(O)cc2)ccn1` yielded an IC50 greater than 100 µM.
Under `NCCn1cc(-c2cccc(C(N)=S)c2)c2ccccc21` stands 22 µM.
With `CCCOc1nnc(NCc2ccc3c(-c4cccc(C(N)=S)c4)cn(C4CCN(S(C)(=O)=O)CC4)c3c2)s1`, the IC50 was less than 20 µM.
Compound `NC(=O)c1ccc2c(-c3cccc(C(N)=S)c3)c[nH]c2c1` displayed a half-inhibitory concentration (IC50) greater than 100 µM.
Consider `Cc1cc(-c2cccc(C(N)=S)c2)c(C)cc1O`, for which the IC50 is greater than 100 µM.
Under `NC(=S)c1cccc(-c2cn(C3CCOCC3)c3cc(CNC(=O)Cc4c[nH]cn4)ccc23)c1` stands less than 20 µM; under `NC(=S)c1cccc(-c2cn(CCC(F)F)c3cc(CNc4c[nH]cn4)ccc23)c1`, less than 20 µM.
The compound `NC(=S)c1ccc(F)c(-c2cn(CCCC(F)(F)F)c3cc(N)ccc23)c1` came in with an IC50 of less than 20 µM.
Under `NC(=S)c1cccc(-c2ccc(O)cc2F)c1` stands greater than 100 µM; under `NC(=S)c1cc(-c2cn(CCC(F)F)c3cc(CO)ccc23)c2[nH]ccc2c1`, less than 20 µM; under `NC(=O)c1cccc(-c2cn(CCC(F)F)c3cc(N)ccc23)c1`, less than 20 µM.
Compound `NC(=S)c1cccc(-c2cn(CCCC(F)(F)F)c3cc(CNC(=O)c4c[nH]cn4)ccc23)c1` registered an IC50 of less than 20 µM.
`NC(=S)c1cccc(-c2c[nH]c3cccc(N)c23)c1` returned an IC50 greater than 100 µM.
Under `Cc1ccc(C(N)=S)cc1-c1ccc(O)cc1` stands greater than 100 µM.
The same measure for `NC(=S)c1cccc(-c2cccc(O)c2)c1`: greater than 100 µM; for `NC(=S)c1cccc(-c2cn(CCCC(F)(F)F)c3cc(CNCc4cccnc4)ccc23)c1`: less than 20 µM.
The same measure for `NC(=S)c1cccc(-c2cn(CC(CO)CO)c3cc(N)ccc23)c1`: less than 20 µM; for `NC(=S)c1cccc(-c2cn(Cc3cnc[nH]3)c3cc(CO)ccc23)c1`: less than 20 µM.
`NC(=S)c1cccc(-c2cn(CC3CC3(F)F)c3cc(N)ccc23)c1` (stereo unspecified) registered an IC50 of less than 20 µM.
Consider `NC(=S)c1cccc(-c2cn(C3CCCC3)c3cc(N)ccc23)c1`, for which the IC50 was less than 20 µM.
`NC(=S)c1cccc(-c2ccc(CCC(F)F)c3[nH]cnc23)c1` returned an IC50 of less than 20 µM.
Under `NC(=S)c1cccc(-c2cn(CCCC(F)(F)F)c3cc(N)ccc23)n1` stands less than 20 µM.
The same measure for `CS(=O)(=O)N1CCC(n2cc(-c3cccc(C(N)=S)c3)c3ccc(Nc4nccs4)cc32)CC1`: less than 20 µM.
The compound `NC(=S)c1cccc(-c2cn(CC(C(F)F)C(F)F)c3cc(CO)ccc23)c1` returned an IC50 of less than 20 µM.
The compound `NC(=S)c1ccc(-c2cn(CCC(F)F)c3cc(CO)ccc23)[nH]1` showed an IC50 of less than 20 µM.
For `Nc1ccc2c(-c3ccc4ccnc(N)c4c3)cn(CCC(F)F)c2c1`, the IC50 is less than 20 µM.
Under `NC(=S)c1cccc(-c2cn(CC(CO)(C(F)F)C(F)F)c3cc(C(O)CC(F)F)ccc23)c1` (stereo unspecified) stands less than 20 µM; under `NC(=S)c1cccc(-c2cn(CC3C(F)(F)COCC3(F)F)c3cc(CO)ccc23)c1`, less than 20 µM; under `CCCn1cnc(CC(=O)NCc2ccc3c(-c4cccc(C(N)=S)c4)cn(C4CCN(S(=O)(=O)CCC)CC4)c3c2)c1`, less than 20 µM.
Consider `NC(=S)c1cccs1`, for which the IC50 was greater than 100 µM.
The same measure for `NC(=S)c1cccc(-c2cn(CCCC(F)(F)F)c3cc(CNC(=O)c4cscn4)ccc23)c1`: less than 20 µM; for `NC(=S)c1cccc(-c2cn(CC3CC(F)C(F)C3)c3cc(CO)ccc23)c1` (stereo unspecified): less than 20 µM.
Compound `NC(=S)c1cc(O)cc(-c2cccc3[nH]ccc23)c1` returned a concentration for half-maximal inhibition (IC50) greater than 100 µM.
The same measure for `NC(=S)c1cccc(-c2cn(CCCC(F)(F)F)c3cc(CNC(=O)c4csc(N)n4)ccc23)c1`: less than 20 µM; for `CN1c2ccccc2CCc2ccc(C(N)=S)cc21`: greater than 100 µM.
The same measure for `N#Cc1cccc(-c2cn(CC(CO)C(F)F)c3cc(N)ccc23)c1` (stereo unspecified): less than 20 µM.
Under `CNc1ccc2c(-c3cccc(C(N)=S)c3)c[nH]c2c1` stands 20 to 100 µM.
The compound `CC1(Cn2cc(-c3cccc(C(N)=S)c3)c3ccc(CO)cc32)CC1` came in with an IC50 of less than 20 µM.
The same measure for `NC(=S)c1cccc(-c2cn(CC(CO)(C(F)F)C(F)F)c3cc(C(O)CCF)ccc23)c1` (stereo unspecified): less than 20 µM; for `CN(C)CCNc1ccc2c(-c3cccc(C(N)=S)c3)cn(CCCC(F)(F)F)c2c1`: greater than 100 µM.
In the case of `NC(=S)c1cccc(-c2cn(C3CNC3)c3cc(CO)ccc23)c1`, the half-inhibitory concentration (IC50) was less than 20 µM.
In the case of `Cc1ccc(C(N)=S)cc1-c1cn(C2CCOCC2)c2cc(N)ccc12`, the IC50 was 20 to 100 µM.
The same measure for `NC(=S)c1cccc(-c2ccc(O)c(F)c2)c1`: greater than 100 µM; for `NC(=S)c1cccc(-c2cn(CCCC(F)(F)F)c3cc(CNC(=O)CCc4c[nH]cn4)ccc23)c1`: less than 20 µM; for `NCc1ccc2c(-c3cccc(C(N)=S)c3)c[nH]c2c1`: 36 µM.
The compound `CS(=O)(=O)N1CCC(n2cc(-c3cccc(C(N)=S)c3)c3ccc(CNC(=O)Cc4cc5ccccc5[nH]4)cc32)CC1` showed an IC50 of less than 20 µM.
For the compound `CCC(O)c1ccc2c(-c3cccc(C(N)=S)c3)cn(CCC(F)F)c2c1` (stereo unspecified), the IC50 was less than 20 µM.
Under `CC(N)c1cccc(-c2cccc3[nH]ccc23)c1` (stereo unspecified) stands greater than 100 µM; under `Cc1c(CO)ccc2c(-c3cccc(C(N)=S)c3)cn(CCCC(F)(F)F)c12`, less than 20 µM.
Under `Cc1nc(CS(=O)(=O)NCc2ccc3c(-c4cccc(C(N)=S)c4)cn(C4CCN(S(C)(=O)=O)CC4)c3c2)cs1` stands less than 20 µM; under `CCCS(=O)(=O)N1CCC(n2cc(-c3cccc(C(N)=S)c3)c3ccc(CNC(=O)Cc4cc(C)[nH]n4)cc32)CC1`, less than 20 µM.
`CCOc1c[nH]c(CC(=O)NCc2ccc3c(-c4cccc(C(N)=S)c4)cn(C4CCN(S(C)(=O)=O)CC4)c3c2)c1` came in with an IC50 of less than 20 µM.
Under `NC(=S)c1cccc(-c2ccc(OCCOCCNC(=O)c3ccc(-c4c5ccc(=O)cc-5oc5cc(O)ccc45)c(C(=O)O)c3)c3[nH]ccc23)c1` stands greater than 100 µM; under `CS(=O)(=O)N1CCC(n2cc(-c3cccc(C(N)=S)c3)c3cc(F)ccc32)CC1`, 20 to 100 µM; under `NCc1ccc2c(-c3cccc(C(N)=S)c3)cn(CCO)c2c1`, 13 µM.
With `NC(=S)c1ccnc(-c2cn(CC(CF)CF)c3cc(CO)ccc23)c1`, the half-inhibitory concentration (IC50) was less than 20 µM.
Under `Cn1cc(-c2cccc(C(N)=S)c2)c2ccccc21` stands 20 to 100 µM; under `NC(=S)c1cccc(-c2cn(CC(CCF)CC(F)F)c3cc(N)ccc23)c1` (stereo unspecified), less than 20 µM; under `NC(=S)c1cccc(-c2cn(CCC(F)F)c3cc(N4CCOCC4)ccc23)c1`, less than 20 µM.
The same measure for `NC(=S)c1ccnc(-c2cn(CCC(F)F)c3cc(CO)ccc23)c1`: less than 20 µM.
Regarding `NC(=S)c1cccc(-c2cn(CC(CF)CF)c3cc(C(O)CO)ccc23)c1` (stereo unspecified), the IC50 was less than 20 µM.
`CS(=O)(=O)N1CCC(n2cc(-c3cccc(C(N)=S)c3)c3ccc(CNC(=O)C4CNC4)cc32)CC1` returned an IC50 of less than 20 µM.
Turning to `NC(=S)c1cccc(-c2cn(CCCC(F)(F)F)c3cc(CNS(=O)(=O)c4c[nH]cn4)ccc23)c1`, the IC50 was less than 20 µM.
Under `OCc1ccc2c(-c3cccc4c3CNC4=S)cn(CCC(F)F)c2c1` stands less than 20 µM; under `NC(=O)c1cccc(-c2cn(CC(CF)CF)c3cc(N)ccc23)c1`, less than 20 µM.
Under `NC(=S)c1cccc(-c2cn(CC(CF)CF)c3cc(NC(=O)c4cnc[nH]4)ccc23)c1` stands less than 20 µM; under `COCc1cc2c(-c3cccc(C(N)=S)c3)ccc(O)c2[nH]1`, 20 to 100 µM; under `CCn1ccc2c(-c3cccc(C(N)=S)c3)cccc21`, greater than 100 µM.
The same measure for `NC(=S)c1cccc(-c2cn(CCC(F)F)c3cc(CNC(=O)C(F)(F)F)ccc23)c1`: less than 20 µM; for `NC(=S)c1cccc(-c2cn(CCC(F)F)c3cc(C(O)CO)ccc23)c1` (stereo unspecified): less than 20 µM.
Turning to `NCc1cccc2c(-c3cccc(C(N)=S)c3)c[nH]c12`, the IC50 was 20 to 100 µM.
On to `NC(=S)c1cccc(-c2cn(CC(CF)C(F)F)c3cc(N)ccc23)c1` (stereo unspecified), for which the IC50 is less than 20 µM.
The same measure for `NC(=S)c1cccc(-c2cn(CC3(O)CCC3)c3cc(CO)ccc23)c1`: less than 20 µM.
Under `NC(=S)c1cccc(-c2cc(CCC(F)F)c3[nH]ccc3c2)c1` stands less than 20 µM.
Under `NC(=S)c1cccc(-c2cn(CCC(F)F)c3cc(CNCCOCCOCCOCCNc4cccc5c4C(=O)N(C4CCC(=O)NC4=O)C5=O)ccc23)c1` (stereo unspecified) stands less than 20 µM; under `NC(=S)c1cccc(-c2cn(C3CCN(C(=O)CCCCc4cccc5c4C(=O)N(C4CCC(=O)NC4=O)C5=O)CC3)c3cc(CNc4nnc(N)s4)ccc23)c1` (stereo unspecified), less than 20 µM.
The compound `O=C1NCc2c1cccc2-c1ccc(O)cc1` came in with an IC50 greater than 100 µM.
Under `NC(=S)c1cccc(-c2cn(Cc3ccc[nH]3)c3cc(CO)ccc23)c1` stands less than 20 µM.
Under `NC(=S)c1cccc(-c2cn(CCC(F)F)c3cc(CO)ccc23)n1` stands less than 20 µM; under `NC(=S)c1cccc(-c2c[nH]c3cccc(O)c23)c1`, greater than 100 µM; under `NC(=S)c1ccc2cc[nH]c2c1`, greater than 100 µM.
In turn, `CS(=O)(=O)N1C2CCC1CC(n1cc(-c3cccc(C(N)=S)c3)c3ccc(N)cc31)C2` (stereo unspecified) gave an IC50 of less than 20 µM.
Under `NC(=S)c1cccc(-c2cccc3[nH]c(CNCc4ccccc4)cc23)c1` stands greater than 100 µM.
The same measure for `NC(=S)c1cccc(-c2cn(CC(F)(F)F)c3cc(N)ccc23)c1`: less than 20 µM.
The same measure for `NC(=S)c1cc(-c2cn(CCC(F)F)c3cc(CO)ccc23)ccc1O`: less than 20 µM.
